# In patent US20230183193A1, “4-DIFLUOROMETHYL BENZOYL AMIDES WITH HERBICIDAL ACTION” (BAYER CROPSCIENCE AKTIENGESELLSCHAFT, priority 2017, published 2023):
# Columns and labels:
# [1] = system: Cyperus serotinus; assay: Pre-emergence herbicidal action, CYPES; assay type: in vivo
# How it was run: (§1)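 Weed seeds were laid out in sandy loam and covered with soil, then the soil surface was treated with an aqueous suspension or emulsion of the formulated compound containing 0.2% wetting agent. Pots stayed in the greenhouse for 3 weeks before damage was rated visually against untreated plants.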
# [2] = system: Amaranthus retroflexus; assay: Pre-emergence herbicidal action, AMARE; assay type: in vivo; conditions: dosage 320 g/ha, scored visually after 3 weeks vs untreated controls
# How it was run: as §1
# [3] = system: LOLMU; assay: Pre-emergence herbicidal action, LOLMU; assay type: in vivo; conditions: Table L
# [4] = system: Stellaria media; assay: Pre-emergence herbicidal action, STEME; assay type: in vivo; conditions: dosage 320 g/ha, scored visually after 3 weeks vs untreated controls
# How it was run: as §1
# [5] = system: Viola tricolor; assay: Post-emergence herbicidal action, VIOTR; assay type: in vivo; conditions: for herbicidal activity VIOTR: 80 g/ha, Table D
# How it was run: (§2)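 Visual percent activity relative to untreated controls, assessed about 3 weeks after foliar treatment, where 0% equals control growth and 100% equals death. Compounds, as wettable powders or emulsion concentrates, are sprayed onto one-leaf-stage plants in sandy loam.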
# [6] = system: Alopecurus myosuroides; assay: Pre-emergence herbicidal action, ALOMY; assay type: in vivo
# How it was run: as §1
# [7] = system: Veronica persica; assay: Post-emergence herbicidal action, VERPE; assay type: in vivo; conditions: dosage 20 g/ha, Table M
# Description: (§3) Seeds of monocotyledonous and dicotyledonous weed and crop plants are laid out in sandy loam soil in wood-fiber pots, covered with soil and cultivated in a greenhouse under good growth conditions. 2 to 3 weeks after sowing, the test plants are treated at the one-leaf stage. The compounds of the invention, formulated in the form of wettable powders (WP) or as emulsion concentrates (EC), are then sprayed onto the green parts of the plants in the form of an aqueous suspension or emulsion at a water application rate equating to […], with addition of 0.2% wetting agent. After the test plants have been left to stand in the greenhouse under optimal growth conditions for about 3 weeks, the action of the preparations is assessed visually in comparison to untreated controls (herbicidal action in percent (%): 100% activity=the plants have died, 0% activity=like control plants). […] At the same time, inventive compounds leave Gramineae crops such as barley, wheat, rye, millet/sorghum, corn or rice virtually undamaged when applied post-emergence, even at high active compound dosages. In addition, some substances are also harmless to dicotyledonous crops such as soya, cotton, oilseed rape, sugar beet or potatoes. Some of the compounds according to the invention have high selectivity and are therefore suitable for controlling unwanted vegetation in agricultural crops by the post-emergence method. The data of Tables C and D below illustrate, in an exemplary manner, the pre-emergence herbicidal action of the compounds according to the invention, the herbicidal activity being stated in percent.
# (§4) For comparison, the herbicidal activity of numerous compounds according to the invention was tested with the structurally closest compounds known from the documents WO 2011/035874, WO 2012/028579 and WO 2012/126932, by the pre- and post-emergence method.
# [8] = system: Setaria viridis; assay: Pre-emergence herbicidal action, SETVI; assay type: in vivo
# How it was run: as §1
# [9] = system: Polygonum convolvulus; assay: Pre-emergence herbicidal action, POLCO; assay type: in vivo
# How it was run: as §1
# [10] = system: Setaria viridis; assay: Post-emergence herbicidal action, SETVI; assay type: in vivo; conditions: for herbicidal activity SETVI: 80 g/ha, Table C
# How it was run: as §2
# [11] = system: Abutilon theophrasti; assay: Post-emergence herbicidal action, ABUTH; assay type: in vivo; conditions: 80 g/ha, Table D
# How it was run: as §2
# [12] = system: Avena fatua; assay: Pre-emergence herbicidal action, AVEFA; assay type: in vivo
# How it was run: as §1
# [13] = system: Avena fatua; assay: Post-emergence herbicidal action, AVEFA; assay type: in vivo
# How it was run: as §2
# [14] = system: Amaranthus retroflexus; assay: Post-emergence herbicidal action, AMARE; assay type: in vivo; conditions: 80 g/ha, Table D
# How it was run: as §2
# [15] = system: ECHCG; assay: Post-emergence herbicidal action, ECHCG; assay type: in vivo; conditions: 80 g/ha, Table C
# How it was run: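 Weed and crop plants grown in sandy loam in the greenhouse, treated at the one-leaf stage 2–3 weeks after sowing. Damage scored visually after about 3 weeks vs untreated controls (0% = control, 100% = dead).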
# [16] = system: Viola tricolor; assay: Pre-emergence herbicidal action, VIOTR; assay type: in vivo; conditions: for herbicidal activity VIOTR: scored visually after 3 weeks vs untreated controls
# How it was run: as §1
# [17] = system: Stellaria media; assay: Post-emergence herbicidal action, STEME; assay type: in vivo; conditions: for Herbicidal activity STEME: 80 g/ha, Table D
# How it was run: as §2
# [18] = system: Alopecurus myosuroides; assay: Post-emergence herbicidal action, ALOMY; assay type: in vivo; conditions: for herbicidal activity ALOMY: 80 g/ha, Table C
# How it was run: as §2
# [19] = system: Matricaria inodora; assay: Pre-emergence herbicidal action, MATIN; assay type: in vivo; conditions: for herbicidal activity MATIN: scored visually after 3 weeks vs untreated controls; for Herbicidal efficacy against MATIN: Table K
# How it was run: as §1
# [20] = system: Matricaria inodora; assay: Post-emergence herbicidal action, MATIN; assay type: in vivo; conditions: dosage 20 g/ha, Table M
# Description: as §3, §4
# [21] = system: Pharbitis purpureum; assay: Post-emergence herbicidal action, PHBPU; assay type: in vivo; conditions: 80 g/ha, Table D
# How it was run: as §2
# [22] = system: Abutilon theophrasti; assay: Pre-emergence herbicidal action, ABUTH; assay type: in vivo; conditions: for Herbicidal efficacy against ABUTH: Table K
# How it was run: as §1
# [23] = system: Cyperus serotinus; assay: Post-emergence herbicidal action, CYPES; assay type: in vivo; conditions: 5 g/ha
# Description: as §3, with “Some of the compounds according to the invention have high selectivity and are therefore suitable for controlling unwanted vegetation in agricultural crops by the post-emergence method. The data of Tables C and D below illustrate, in an exemplary manner, the pre-emergence herbicidal action of the compounds according to the invention, the herbicidal activity being stated in percent.” left out
# [24] = system: ECHCG; assay: Pre-emergence herbicidal action, ECHCG; assay type: in vivo, Echinochloa crus-galli
# [25] = dosage 320 g/ha, scored visually after 3 weeks vs untreated controls
smiles,measurement,setting,value
CSc1c(C(F)F)ccc(C(=O)Nc2nnc(C)o2)c1C [Example 7-1],Herbicidal efficacy against CYPES,"[1]; dosage 80 g/ha, Table L",60
same,Herbicidal efficacy against CYPES,"[1]; dosage 320 g/ha, Table L",70
same,herbicidal activity AMARE,[2],100%
same,Herbicidal efficacy against LOLMU,[3]; dosage 80 g/ha,0
same,Herbicidal efficacy against LOLMU,[3]; dosage 320 g/ha,30
same,Herbicidal activity STEME,[4],80%
same,herbicidal activity VIOTR,[5],100%
same,Herbicidal efficacy against VIOTR,"[5]; dosage 20 g/ha, Table M",100
same,Herbicidal efficacy against ALOMY,"[6]; dosage 80 g/ha, Table L",60
same,Herbicidal efficacy against ALOMY,"[6]; dosage 320 g/ha, Table L",70
same,Herbicidal efficacy against VERPE,[7],90
same,Herbicidal efficacy against SETVI,"[8]; dosage 80 g/ha, Table L",70
same,Herbicidal efficacy against SETVI,"[8]; dosage 320 g/ha, Table L",100
same,Herbicidal efficacy against POLCO,"[9]; dosage 80 g/ha, Table L",30
same,Herbicidal efficacy against POLCO,"[9]; dosage 320 g/ha, Table L",40
same,herbicidal activity SETVI,[10],100%
same,Herbicidal efficacy against SETVI,"[10]; dosage 20 g/ha, Table M",100
same,herbicidal activity ABUTH,[11],100%
same,Herbicidal efficacy against AVEFA,"[12]; dosage 80 g/ha, Table L",20
same,Herbicidal efficacy against AVEFA,"[12]; dosage 320 g/ha, Table L",70
same,Herbicidal efficacy against AVEFA,"[13]; dosage 20 g/ha, Table M",40
same,herbicidal activity AMARE,[14],100%
same,Herbicidal activity ECHCG,[15],100%
same,Herbicidal efficacy against VIOTR,"[16]; dosage 80 g/ha, Table L",90
same,Herbicidal efficacy against VIOTR,"[16]; dosage 320 g/ha, Table L",100
same,herbicidal activity VIOTR,[16]; dosage 320 g/ha,100%
same,Herbicidal activity STEME,[17],90%
same,herbicidal activity ALOMY,[18],90%
same,Herbicidal efficacy against ALOMY,"[18]; dosage 20 g/ha, Table M",70
same,herbicidal activity MATIN,[19]; dosage 320 g/ha,80%
same,Herbicidal efficacy against MATIN,[20],40
same,Herbicidal activity PHBPU,[21],90%
Cc1c(C(=O)Nc2nnnn2C)ccc(C(F)F)c1[S+](C)[O-] (stereo not shown) [Example 1-2],Herbicidal efficacy against CYPES,[1]; 20 g/ha,60
same,Herbicidal efficacy against CYPES,[1]; 80 g/ha,80
same,Herbicidal efficacy against CYPES,[1]; 320 g/ha,90
same,herbicidal activity CYPES,[1]; [25],90%
same,herbicidal activity AMARE,[2],100%
same,Herbicidal activity STEME,[4],90%
same,Herbicidal efficacy against VIOTR,[5]; 5 g/ha,100
same,Herbicidal efficacy against VIOTR,[5]; 20 g/ha,100
same,herbicidal activity VIOTR,[5],100%
same,Herbicidal efficacy against ALOMY,[6]; 20 g/ha,70
same,Herbicidal efficacy against ALOMY,[6]; 80 g/ha,90
same,Herbicidal efficacy against ALOMY,[6]; 320 g/ha,100
same,herbicidal activity ALOMY,[6]; [25],100%
same,Herbicidal efficacy against ABUTH,[22]; dosage 80 g/ha,100
same,Herbicidal efficacy against ABUTH,[22]; dosage 320 g/ha,100
same,herbicidal activity ABUTH,[22]; [25],100%
same,Herbicidal efficacy against CYPES,[23],50
same,Herbicidal efficacy against SETVI,[8]; 80 g/ha,90
same,Herbicidal efficacy against SETVI,[8]; 320 g/ha,100
same,herbicidal activity SETVI,[8]; [25],100%
same,Herbicidal efficacy against POLCO,"[9]; dosage 80 g/ha, Table K",70
same,Herbicidal efficacy against POLCO,"[9]; dosage 320 g/ha, Table K",80
same,Herbicidal efficacy against SETVI,[10]; 5 g/ha,90
same,Herbicidal efficacy against SETVI,[10]; 20 g/ha,90
same,herbicidal activity SETVI,[10],90%
same,herbicidal activity ABUTH,[11],80%
same,Herbicidal efficacy against AVEFA,[12]; 20 g/ha,20
same,Herbicidal efficacy against AVEFA,[12]; 80 g/ha,70
same,Herbicidal efficacy against AVEFA,[12]; 320 g/ha,100
same,herbicidal activity AVEFA,[12]; [25],100%
same,Herbicidal efficacy against AVEFA,[13]; 5 g/ha,70
same,Herbicidal efficacy against AVEFA,[13]; 20 g/ha,90
same,herbicidal activity AVEFA,"[13]; 80 g/ha, Table C",100%
same,herbicidal activity AMARE,[14],80%
same,Herbicidal activity ECHCG,[15],90%
same,Herbicidal efficacy against ECHCG,[24]; 20 g/ha,40
same,Herbicidal efficacy against ECHCG,[24]; 80 g/ha,100
same,Herbicidal efficacy against ECHCG,[24]; 320 g/ha,100
same,Herbicidal efficacy against VIOTR,"[16]; dosage 20 g/ha, Table K",80
same,Herbicidal efficacy against VIOTR,"[16]; dosage 80 g/ha, Table K",100
same,Herbicidal efficacy against VIOTR,"[16]; dosage 320 g/ha, Table K",100
same,herbicidal activity VIOTR,[16]; dosage 320 g/ha,100%
same,Herbicidal efficacy against STEME,[17]; 5 g/ha,90
same,Herbicidal efficacy against STEME,[17]; 20 g/ha,90
same,Herbicidal activity STEME,[17],100%
same,Herbicidal efficacy against ALOMY,[18]; 5 g/ha,60
same,Herbicidal efficacy against ALOMY,[18]; 20 g/ha,80
same,herbicidal activity ALOMY,[18],90%
same,Herbicidal efficacy against MATIN,[19]; dosage 20 g/ha,70
same,Herbicidal efficacy against MATIN,[19]; dosage 80 g/ha,100
same,Herbicidal efficacy against MATIN,[19]; dosage 320 g/ha,100
same,herbicidal activity MATIN,[19]; dosage 320 g/ha,100%
same,Herbicidal activity PHBPU,[21],90%
